{"source": "patent US20090023186A1", "about": "“USE OF VALPROIC ACID FOR ENHANCING PRODUCTION OF RECOMBINANT PROTEINS IN MAMMALIAN CELLS” (EXCELLGENE SA, priority 2007, published 2009)", "test_system": "HEK293E cells", "test": "Combination with IDMTs, IgG batch yield by ELISA (Example 6)", "type": "cell-based, Human", "conditions": "VPA 4 mmol/l; no addition = 100%; day 5 after transfection", "protocol": "10 million suspension-adapted HEK293E cells were resuspended in 0.5 ml of Ex-Cell 293 HEK 293 serum-free medium with 4 mmol/l L-glutamine (Cat. No. 14571C-[…]; Lot No. 6A0093; SAFC Biosciences, Lenexa, Kans., USA, “Ex-Cell” medium; note: “Ex-Cell” medium-as used herein-refers to a medium comprising 4 mmol/l L-glutamine) in a 50-ml filter tube each (TPP AG, Trasadingen, Switzerland; Cat. No. 87050, Lot 20050174). In a separate set, 10 million suspension-adapted CHO DG44 cells were resuspended in 0.5 ml of ProCHO5 serum-free medium with 4 mmol/[…] hypoxanthine and 0.194 g/l thymidine (BioWhittaker (Lonza), Belgium; Cat. No. BE12-[…]; Lot No. 7MB0040; “ProCHO5” medium; note: “ProCHO5” medium-as used herein-refers to a medium comprising 4 mmol/[…] hypoxanthine and 0.194 g/l thymidine) in a 50-ml filter tube each (TPP AG, Trasadingen, Switzerland; Cat. No. 87050, Lot 20050174). Then 12.5 μg plasmid DNA at a concentration of 1 μg/μl was added in each tube with the following composition 50% (6.25 μg) p-LC (SEQ ID NO: 1) 50% (6.25 μg) p-HC (SEQ ID NO: 3). Plasmid p-LC comprises the genetic information for the production of the light chain of an IgG antibody, plasmid p-HC comprises the genetic information for the production of the heavy chain of an IgG antibody. The particular vector constructs used in the present invention can also be obtained from the inventors. The inventors can be contacted via e-mail at […]. […] In short, Goat anti-human kappa light chain IgG (Biosource) was used for coating the ELISA-plates, and with AP-conjugated goat anti-human gamma chain IgG (Biosource) the synthesized IgG1 was detected. […] Absorption was measured at 405 nm against 490 nm using a microplate reader (SPECTRAmaxTM340; Molecular Devices, Palo Alto, Calif., USA)."}
{"molecule": "CCCC(CCC)C(=O)O", "note": "[VPA, valproic acid]", "values": [{"measurement": "Fold increase in batch yield over control", "result": "520% ± 30%"}]}
